According to ChEMBL document CHEMBL6178013, “Ferroptosis of Cancer Cells via Tubulin Degradation and Mitochondrial Dysfunction: A Novel Mechanism of Anticancer Effect for Small-Molecule Anion Transporters” (J Med Chem, 2025):
Values after ≈ are worked out from the molar mass of the structure shown. Active and inactive are the calls of the source. The calls are words filed in the database; no cut-off is given here.

How the values were obtained:
Chloride [1] = assay: Binding affinity to chloride anions assessed as binding constant at 1:1 stoichiometry of compound and tetrabutylammonium chloride salt by 1H NMR spectroscopy
Chloride [2] = assay: Binding affinity to chloride anions assessed as chloride efflux in egg-yolk L-alpha-phosphatidylcholine liposome model harboring intravesicular KCl/extravesicular NaNO3
Chloride [3] = assay: Binding affinity to chloride anions assessed as chloride efflux in egg-yolk L-alpha-phosphatidylcholine liposome model harboring intravesicular RbCl/extravesicular NaNO3
Chloride [4] = assay: Binding affinity to chloride anions assessed as chloride efflux in egg-yolk L-alpha-phosphatidylcholine liposome model harboring intravesicular NaCl/extravesicular Na2SO4
Chloride [5] = assay: Binding affinity to chloride anions in human HeLa cells assessed as chloride influx up to 5 uM incubated for 2 hrs by MQAE staining based analysis; format: cell-based
Chloride [6] = assay: Binding affinity to chloride anions in human HeLa cells assessed as increase in chloride influx at 1 uM measured after 15 mins by flow cytometry; format: cell-based
Chloride [7] = assay: Binding affinity to chloride anions in human HeLa cells assessed as increase in chloride influx at 1 uM measured after 30 to 60 mins by flow cytometry; format: cell-based; conditions: time 30-60 min
HeLa [8] = assay: Cytotoxicity against human HeLa cells assessed as decrease in cell viability at 0.01 to 10 uM pretreated with Z-VAD-FMK/Fer-1 followed by compound addition by MTT assay; format: functional, cell-based; conditions: dose 0.01-10 µM
HeLa [9] = assay: Cytotoxicity against human HeLa cells assessed as decrease in cell viability at 0.01 to 10 uM pretreated with Nec-1 followed by compound addition by MTT assay; format: functional, cell-based; conditions: dose 0.01-10 µM
[10] = molecular target: Tubulin alpha (Homo sapiens) (UniProt P0DPH7+P68366+Q71U36+P68363+Q9BQE3+Q6PEY2+A6NHL2+Q9NY65); assay: Induction of alpha-tubulin degradation in human HeLa cells at 1 uM preincubated with MG132 followed by compound addition measured after 24 hrs by immunoblotting analysis; format: cell-based
[11] = molecular target: Tubulin beta (Homo sapiens) (UniProt P68371+Q9H4B7+Q13509+P04350+Q3ZCM7+P07437+Q13885+Q9BVA1+Q9BUF5+A6NNZ2); assay: Induction of beta-tubulin degradation in human HeLa cells at 1 uM preincubated with MG132 followed by compound addition measured after 24 hrs by immunoblotting analysis; format: cell-based
HeLa [12] = assay: Induction of mitochondrial membrane permeability in human HeLa cells assessed as red fluorescence at 0.5 uM incubated for 24 hrs by JC-1 staining based analysis (reference value: 98.5 %); format: functional
HeLa [13] = assay: Induction of mitochondrial membrane permeability in human HeLa cells assessed as green fluorescence at 0.5 uM incubated for 24 hrs by JC-1 staining based analysis (reference value: 1.5 %); format: functional
HeLa [14] = assay: Induction of mitochondrial membrane permeability in human HeLa cells assessed as green fluorescence at 1 uM incubated for 24 hrs by JC-1 staining based analysis (reference value: 1.5 %); format: functional
HeLa [15] = assay: Induction of lipid peroxidation in human HeLa cells assessed as increase in Fe2+ level incubated for 12 hrs by absorbance based assay; format: functional, cell-based; conditions: dose 0.1-1 µM
HeLa [16] = assay: Induction of lipid peroxidation in human HeLa cells assessed as decrease in GSH level incubated for 12 hrs by absorbance based assay; format: functional, cell-based; conditions: dose 0.1-1 µM
HeLa [17] = assay: Induction of lipid peroxidation in human HeLa cells assessed as increase in MDA level incubated for 12 hrs by absorbance based assay; format: functional, cell-based; conditions: dose 0.1-1 µM
HeLa [18] = assay: Induction of lipid peroxidation in human HeLa cells assessed as increase in green fluorescence at 0.1 to 1 uM incubated for 24 hrs by C11-BODIPY-581/591 probe based analysis; format: functional, cell-based; conditions: dose 0.1-1 µM
HeLa [19] = assay: Induction of lipid peroxidation in human HeLa cells by flow cytometry; format: functional, cell-based; conditions: dose 0.1-1 µM
HeLa [20] = assay: Induction of ferroptosis in human HeLa cells assessed as increase in PARP-1 cleavage at 0.1 to 1 uM incubated for 24 hrs by immunoblotting analysis; format: functional, cell-based; conditions: dose 0.1-1 µM
HeLa [21] = assay: Induction of cell cycle arrest in human HeLa cells assessed as accumulation of cells at S phase at 0.5 uM incubated for 24 hrs by PI staining based flow cytometry relative to control; format: functional
HeLa [22] = assay: Induction of cell cycle arrest in human HeLa cells assessed as accumulation of cells at S phase at 1 uM incubated for 24 hrs by PI staining based flow cytometry relative to control; format: functional
[23] = Aqueous solubility of compound; format: physicochemical
[24] = AUC (0 to infinity) in male CD-1 mouse at 1 mg/kg, iv measured for 0.083 to 48 hrs by HPLC/MS/MS analysis; format: ADME, organism-based; conditions: in vivo, time 0.083-48 hrs
HeLa [25] = assay: Antitumor activity against human HeLa cells xenografted in male Balb/C nude mouse assessed as reduction in tumor weight at 10 mg/kg, ip administered on every 2 days measured after 18 days relative to control; format: functional; parameters: scale not given: the % may be the effect or the level left; conditions: time 18 day
HeLa [26] = assay: Antitumor activity against human HeLa cells xenografted in male Balb/C nude mouse assessed as reduction in tumor weight at 20 mg/kg, ip administered on every 2 days measured after 18 days relative to control; format: functional; parameters: scale not given: the % may be the effect or the level left; conditions: time 18 day
HeLa [27] = assay: In vivo induction of ferroptosis in human HeLa cells xenografted in male Balb/C nude mouse assessed as increase in cleaved caspase-3 level administered intraperitoneally on every 2 days measured after 18 days by immunoblotting analysis; format: functional, organism-based; conditions: dose 10-20 mg/kg, route ip, time 18.0 day
[28] = Toxicity in male Balb/C nude mouse xenografted with human HeLa cells assessed as abnormalities in lung at 10 to 20 mg/kg, ip administered on every 2 days measured after 18 days by H and E staining based analysis; format: organism-based; conditions: in vivo, 432 h, dose 10-20 mg/kg, time 18 day
[29] = Drug concentration in brain of C57BL/6 mouse at 5 mg/kg, iv measured after 4 hrs by HPLC/MS/MS analysis; format: ADME, organism-based; conditions: read-out: Ct

SMILES: Fc1cc(-c2nc3c(C(F)(F)F)cc(C(F)(F)F)cc3[nH]2)cc(-c2nc3c(C(F)(F)F)cc(C(F)(F)F)cc3[nH]2)c1
- K (Chloride [1]): 5250 M⁻¹
- Activity (Chloride [2]): Active
- Activity (Chloride [3]): Active
- Activity (Chloride [4]): inactive
- Activity (Chloride [5]): Active
- Activity (Chloride [6]): inactive
- Activity (Chloride [7]): Active
- Activity (HeLa [8]): Not active; Z-Vad-Fmk/Fer-1 Rescued Cells In Dose-Dependent Manner
- Activity (HeLa [9]): Active
- Activity [10]: inactive
- Activity [11]: inactive
- Activity (HeLa [12]): 55.1%
- Activity (HeLa [13]): 44.9%
- Activity (HeLa [14]): 66.8%
- Activity (HeLa [15]): Dose-dependent-effect
- Activity (HeLa [16]): Dose-dependent-effect
- Activity (HeLa [17]): Dose-dependent-effect
- Activity (HeLa [18]): Active
- Activity (HeLa [19]): Dose-dependent-effect
- Activity (HeLa [20]): Active
- Activity (HeLa [21]): 36%
- Activity (HeLa [22]): 48%
- solubility [23]: 200 µg/mL (≈ 333 µM)
- AUC(0-inf) [24]: 17800 ng·h/mL
- Activity (HeLa [25]): 57%
- Activity (HeLa [26]): 69%
- Activity (HeLa [27]): Dose-dependent-effect
- Activity [28]: Non-toxic
- concentration at 4 h [29]: 1300 nM
